Data from patent publication US4701459A, “7-amino-1,3-dihydro-2H-imidazo[4,5-b]quinolin 2-ones and method for inhibiting phosphodiesterase and blood platelet aggregation” (Bristol-Myers Company, priority 1986, dated 1987).
Values after ≈ are worked out from the molar mass of the structure shown. Read-outs that look alike come from different tables or passages of the source.

Key:
[1] = tested on: platelet rich plasma (ADP and collagen-induced platelet aggregation); assay: In Vitro Inhibition of Platelet Aggregation (aggregometer method of Born, ADP- or collagen-induced); format: cell-based; conditions: Oryctolagus cuniculus, rabbit PRP
Source text: In Vitro Inhibition of Platelet Aggregation
The aggregometer method of Born (1), as modified by Mustard, et al. (2) was used to assess the in vitro activity of the various compounds as to inhibition of adenosine diphosphate (ADP) and collagen-induced platelet aggregation. Platelet rich plasma (PRP) was separated by centrifugation from citrated (3.8 percent) rabbit blood. […] The various compounds tested were dissovled in dimethylsulfoxide (DMSO) so that 5 mcl added to the platelet rich plasma would yield the desired test concentration. Vehicle control trials were done and compared with aggregation induced in platelet rich plasma containing various concentrations of the test compounds. Dose response curves were obtained and Effective Concentration (EC50) values calculated.

[2] = tested on: cAMP phosphodiesterase (human platelets); assay: Inhibition of Cyclic AMP Phosphodiesterase; format: biochemical; conditions: PDE from human platelets
Procedure: Inhibition of Cyclic AMP Phosphodiesterase
This assay is carried out essentially as described by Thompson, et al., Methods in Enzymology, 38, 205-212 (1974). Briefly, tritium labeled cyclic adenosine monophosphate (cAMP) is incubated with a phosphodiesterase (PDE) enzynme obtained from human platelets which converts a portion of the cAMP to 5'AMP in culture tubes. This reaction is terminated by submerging the tubes in a boiling water bath after which they are placed on ice and an aliquot of snake venom is added to each tube. This, during a second incubation, converts the 5'AMP to adenosine. Ion exchange resin is added to bind the remaining cyclic AMP. The tubes are centrifuged to sediment the resin and a portion of the clear supernatent (which contains radioactive adenosine) is counted in a liquid scintillation counter. The cAMP phosphodiesterase inhibition activity of a test agent is determined by pre-incubating the PDE enzyme preparation with the test agent.

[3] = tested on: platelet rich plasma (induced aggregation); assay: Inhibition of Platelet Aggregation Following Oral Administration (Ex vivo method); format: in vivo; conditions: Rattus norvegicus, rats, oral (gavage), 2 hours after dosing, vs. ADP
Procedure: Inhibition of Platelet Aggregation Following Oral Administration
This test is sometimes referred to in the art as an Ex vivo method and was initially described by Fleming, et al., Arch. Int. Pharmacodyn. Ther., 199, 164 (1972). Briefly, the assay is essentially carried out as follows.
Aggregometry is performed in vitro as previously described on platelet rich plasma samples obtained from rats dosed with either test compounds or the vehicle. In all cases, activity is determined 2 hours after the drug is administered orally at various doses by gavage as a suspension in […] plus a few drops of Tween 20.

[4] = tested on: ferrets; assay: Ferret In Vivo Inotropic Activity; conditions: anesthetized ferrets, monitored 60 minutes; for Maximum Percentage Change, Right Ventricular Contractile Force: percent change from predose control
Procedure: In Vivo Inotropic Activity This test is carried out in ferrets as follows. Fasted anesthetized ferrets are instrumented to study hemodynamic parameters as well as right ventricular contractile force (RVCF) using a Walton-Brodie open strain guage arch. Drugs are administered intraduodenally as solutions in DMSO (1 mL or less) and effects on myocardial contractile force and other parameters are monitored for 60 minutes after dosing. Changes in contractile force in response to drug treatment are expressed in terms of percent change from predose control.

[5] = vs. ADP (0.5 mcg/ml), read-out: Platelet Inhibition In Vitro - Rabbit PRP EC50 vs. ADP
[6] = vs. collagen, read-out: Platelet Inhibition In Vitro - Rabbit PRP EC50 vs. collagen

Question: For `CC(=O)Nc1ccc2nc3[nH]c(=O)[nH]c3cc2c1` [Example 4, N-(2,3-Dihydro-2-oxo-1H-imidazo[4,5-b]quinolin-7-yl)acetamide], which EC50 [1, 5] is on record?
Answer: 2 µg/mL (≈ 8.26 µM)

Question: And the EC50 [1, 6]?
Answer: 0.8 µg/mL (≈ 3.3 µM)

Question: What about the IC50 [2] of the same molecule?
Answer: 700 nM

Question: How did the EC50 [1, 6] turn out when `Nc1ccc2nc3[nH]c(=O)[nH]c3cc2c1` [Example 5, 7-Amino-1,3-dihydro-2H-imidazo[4,5-b]quinolin-2-one] was run?
Answer: 0.4 µg/mL (≈ 2 µM)

Question: Which results are given for `O=C(Nc1ccc2nc3[nH]c(=O)[nH]c3cc2c1)c1ccccc1` [Example 6, N-(2,3-Dihydro-2-oxo-1H-imidazo[4,5-b]quinolin-7-yl)benzamide]?
Answer: ED50 [3]: 5.6 mg/kg; IC50 [2]: 200 nM; Maximum Percentage Change, Blood Pressure ([4]; 3 mg/kg intraduodenal): -8 ± 6%; Maximum Percentage Change, Right Ventricular Contractile Force ([4]; 3 mg/kg intraduodenal): 9 ± 4%

Question: Which results are given for `O=c1[nH]c2cc3cc(N4CCCCC4)ccc3nc2[nH]1` [Example 7, 1,3-Dihydro-7-(1-piperidinyl)-2H-imidazo[4,5-b]quinolin-2-one]?
Answer: EC50 [1, 5]: 1 µg/mL (≈ 3.73 µM); ED50 [3]: 20 mg/kg; Maximum Percentage Change, Blood Pressure ([4]; 0.3 mg/kg intraduodenal): -21 ± 5%; Maximum Percentage Change, Right Ventricular Contractile Force ([4]; 0.3 mg/kg intraduodenal): 14 ± 12%; Maximum Percentage Change, Blood Pressure ([4]; 3 mg/kg intraduodenal): -39 ± 3%; Maximum Percentage Change, Right Ventricular Contractile Force ([4]; 3 mg/kg intraduodenal): 22 ± 8%

Question: With `O=c1[nH]c2cc3cc(N4CCCC4)ccc3nc2[nH]1` [Example 8, 1,3-Dihydro-7-(1-pyrrolidinyl)-2H-imidazo-[4,5-b]quinolin-2-one] as the molecule, how does the EC50 [1, 6] read?
Answer: 0.4 µg/mL (≈ 1.57 µM)

Question: For `CCN(CC)c1ccc2nc3[nH]c(=O)[nH]c3cc2c1` [Example 9, 7-(Diethylamino)-1,3-dihydro-2H-imidazo[4,5-b]quinolin-2-one], which EC50 [1, 5] is on record?
Answer: 0.3 µg/mL (≈ 1.17 µM)

Question: `O=c1[nH]c2cc3cc(N4CCOCC4)ccc3nc2[nH]1` [Example 10, 1,3-Dihydro-7-(4-morpholinyl)-2H-imidazo[4,5-b]quinolin-2-one] was tested. Which EC50 [1, 5] did it give?
Answer: 0.03 µg/mL (≈ 0.111 µM)

Question: And the EC50 [1, 6]?
Answer: 0.02 µg/mL (≈ 0.074 µM)

Question: And the IC50 [2]?
Answer: 20 nM

Question: Which results are given for `COC(=O)C1CCN(c2ccc3nc4[nH]c(=O)[nH]c4cc3c2)CC1` [Example 11, Methyl 1-(2,3-Dihydro-2-oxo-1H-imidazo[4,5-b]quinolin-7-yl)-4-piperidinecarboxylate]?
Answer: EC50 [1, 5]: 0.04 µg/mL (≈ 0.123 µM); EC50 [1, 6]: 0.012 µg/mL (≈ 0.0368 µM)

Question: With `O=C(O)C1CCN(c2ccc3nc4[nH]c(=O)[nH]c4cc3c2)CC1` [Example 12, 1-(2,3-Dihydro-2-oxo-1H-imidazo[4,5-b]quinolin-7-yl)-4-piperidinecarboxylicAcid] as the molecule, how does the EC50 [1, 5] read?
Answer: 3.5 µg/mL (≈ 11.2 µM)

Question: And the EC50 [1, 6]?
Answer: 3 µg/mL (≈ 9.61 µM)

Question: And the IC50 [2]?
Answer: 20 nM

Question: `CCOC(=O)N1CCN(c2ccc3nc4[nH]c(=O)[nH]c4cc3c2)CC1` [Example 13, Ethyl 4-(2,3-Dihydro-2-oxo-1H-imidazo[4,5-b]quinolin-7-yl)-1-piperazinecarboxylate] was tested. Which EC50 [1, 6] did it give?
Answer: 0.17 µg/mL (≈ 0.498 µM)

Question: What about the IC50 [2] of the same molecule?
Answer: 700 nM

Question: Which results are given for `O=C(c1ccccc1)N1CCN(c2ccc3nc4[nH]c(=O)[nH]c4cc3c2)CC1` [Example 14, 1-Benzoyl-4-(2,3-dihydro-2-oxo-1H-imidazo[4,5-b]quinolin-7-yl)piperazine]?
Answer: EC50 [1, 5]: 0.125 µg/mL (≈ 0.335 µM); IC50 [2]: 600 nM

Question: Which EC50 [1, 5] does the source give for `COc1ccc(C(=O)N2CCN(c3ccc4nc5[nH]c(=O)[nH]c5cc4c3)CC2)cc1OC` [Example 15, 1-(2,3-Dihydro-2-oxo-1H-imidazo[4,5-b]quinolin-7-yl)-4-(3,4-dimethoxybenzoyl)piperazine] here?
Answer: 3 µg/mL (≈ 6.92 µM)

Question: What about the EC50 [1, 6] of the same molecule?
Answer: 2 µg/mL (≈ 4.61 µM)

Question: Which results are given for `O=c1[nH]c2cc3cc(N4CCN(c5ccccc5)CC4)ccc3nc2[nH]1` [Example 16, 1,3-Dihydro-7-(4-phenyl-1-piperazinyl)-2H-imidazo[4,5-b]quinolin-2-one]?
Answer: EC50 [1, 5]: 0.12 µg/mL (≈ 0.347 µM); EC50 [1, 6]: 0.025 µg/mL (≈ 0.0724 µM)

Question: Which EC50 [1, 5] does the source give for `CN(C(=O)C1CCN(c2ccc3nc4[nH]c(=O)[nH]c4cc3c2)CC1)C1CCCCC1` [Example 17, N-Cyclohexyl-1-(2,3-dihydro-2-oxo-1H-imidazo[4,5-b]quinolin-7-yl)-N-methyl-4-piperidinecarboxamide] here?
Answer: 1.5 µg/mL (≈ 3.68 µM)

Question: What about the EC50 [1, 6] of the same molecule?
Answer: 0.75 µg/mL (≈ 1.84 µM)

Question: Which EC50 [1, 5] does the source give for `OCCN(CCO)c1nc(N2CCCCC2)c2nc(N(CCO)CCO)nc(N3CCCCC3)c2n1` [dipyridamole, reference compound] here?
Answer: […]

Question: And the ED50 [3]?
Answer: > 100 mg/kg

Question: Which “Maximum Percentage Change, Right Ventricular Contractile Force” value ([4]; 3 mg/kg intraduodenal) does the source give for `Cc1[nH]c(=O)c(C#N)cc1-c1ccncc1` [milrinone, reference compound] here?
Answer: 52%
